Data: US6172042A, “Synthetic peptides that inhibit IL-6 activity” (Yeda Research and Development Co. LTD, priority 1995, dated 2001)
Where a SMILES comes first, the peptide text is derived from it.

System: B9 plasmacytoma-derived cells
Conditions: 250 μg/ml
Experimental: To assay the biological activity of the peptides as inhibitors of IL-6 action against growth of plasmacytoma cells, a hybridoma cell line B9 whose growth is IL-6 dependent (Helle et al, 1988) was used. The B9 cells were cultured in suspension in growth medium RPMI 1640 (Biolabs Ltd., Israel) with 10% heat-inactivated fetal calf serum and 4 U/ml IL-6.
Prior to assay, the B9 cells were washed and incubated for 5 hours in growth medium but without IL-6. The cells were centrifuged, resuspended in growth medium with 2.5 units/ml (i.e. 7.5 IU/ml) of IL-6 and seeded in a 96-well microplate (Nunc, Denmark) at 50,000 cells in a final volume of 0.2 ml per well. A 25 µl of water solution with appropriate peptide concentration was included in the final volume of each well, i.e. the peptides at concentrations ranging from 62.5 μg/ml to 250 μg/ml (as well as a 0 μg/ml control) were added together with the IL-6. […] The optical absorbance at 530 nm wavelength of each well was measured as specified by the manufacturer. The absorbance is directly proportional to the number of living cells in the well as verified in calibration experiments from 50,000 to 10^6 B9 cells (0.25 OD530 corresponding to 5×10^5 B9 cells under the present experimental conditions). The results were expressed as the difference between final cell density with IL-6 and without IL-6. […]

CSCC[C@H](NC(=O)[C@H](Cc1c[nH]c2ccccc12)NC(=O)[C@@H](NC(=O)[C@@H](NC(=O)[C@H](Cc1ccccc1)NC(=O)[C@@H](NC(=O)[C@H](CCCCN)NC(=O)[C@H](CO)NC(=O)[C@H](CCCNC(=N)N)NC(=O)[C@H](CCC(=O)O)NC(=O)[C@H](C)NC(=O)[C@H](CCCNC(=N)N)NC(=O)[C@H](Cc1ccc(O)cc1)NC(=O)[C@H](CCCNC(=N)N)NC(=O)[C@@H](N)CC(C)C)[C@@H](C)O)[C@@H](C)O)[C@@H](C)O)C(=O)N[C@H](C(=O)O)C(C)C [peptide 1063, LRYRAERSKTFTTWMV] (H-LRYRAERSKTFTTWMV-OH)
growth inhibition of B9 cells: 99%
